Laboratory results reported in patent US20260193264A1, “BENZOYPARAZINE PYRAZINES AND THEIR USES” (FOGHORN THERAPEUTICS INC., priority 2022, published 2026).
Read-outs that look alike come from different tables or passages of the source.

How the values were obtained:
[1] = biological target: T1, HiBiT-BRM fusion protein in stable HeLa cell line (Homo sapiens, UniProt P51531); assay: HiBiT-BRM cell-based degradation assay (Nano-Glo HiBiT Lytic Detection, 24 h); set-up: DC50: scale not given here; conditions: HeLa HiBiT-BRM cells; for DC50: read-out: BRM HiBit Degradation IC50; for BRM HiBit Degradation Maximum (%): top dose 30 μM
T1 construct: expressed in transfected cells
Method in brief: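 Stable HiBiT-BRM HeLa cells treated 24 h with 10-point 3-fold dilutions, top final dose 30 μM, in duplicate. Luminescence read after lytic LgBiT reagent. Percent degradation was normalised to DMSO (high control) and 2 μM reference BRM/BRG1 degrader (low control).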

[2] = biological target: T2, HiBit-BRG1 fusion protein in stable HeLa cell line expressing HiBit-BRG1 and LgBit (Homo sapiens, UniProt P51532); assay: HiBiT-BRG1 cell-based degradation assay (Nano-Glo HiBiT, 24 h); conditions: HeLa HiBit-BRG1/LgBit cells; for DC50: read-out: BRMG1 HiBit Degradation IC50; for Dmax: top dose 30 μM, read-out: BRG1 HiBit Degradation Maximum (%)
T2 construct: expressed in transfected cells
Method in brief: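 Stable HeLa line co-expressing HiBiT-BRG1 and LgBiT, compound-treated 24 h; luminescence read after Nano-Glo HiBiT lytic reagent. % degradation normalised between DMSO (high control) and 2 μM reference BRM/BRG1 degrader (low control).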

T1 sequence (P51531 whole entry, the tested form may be a part): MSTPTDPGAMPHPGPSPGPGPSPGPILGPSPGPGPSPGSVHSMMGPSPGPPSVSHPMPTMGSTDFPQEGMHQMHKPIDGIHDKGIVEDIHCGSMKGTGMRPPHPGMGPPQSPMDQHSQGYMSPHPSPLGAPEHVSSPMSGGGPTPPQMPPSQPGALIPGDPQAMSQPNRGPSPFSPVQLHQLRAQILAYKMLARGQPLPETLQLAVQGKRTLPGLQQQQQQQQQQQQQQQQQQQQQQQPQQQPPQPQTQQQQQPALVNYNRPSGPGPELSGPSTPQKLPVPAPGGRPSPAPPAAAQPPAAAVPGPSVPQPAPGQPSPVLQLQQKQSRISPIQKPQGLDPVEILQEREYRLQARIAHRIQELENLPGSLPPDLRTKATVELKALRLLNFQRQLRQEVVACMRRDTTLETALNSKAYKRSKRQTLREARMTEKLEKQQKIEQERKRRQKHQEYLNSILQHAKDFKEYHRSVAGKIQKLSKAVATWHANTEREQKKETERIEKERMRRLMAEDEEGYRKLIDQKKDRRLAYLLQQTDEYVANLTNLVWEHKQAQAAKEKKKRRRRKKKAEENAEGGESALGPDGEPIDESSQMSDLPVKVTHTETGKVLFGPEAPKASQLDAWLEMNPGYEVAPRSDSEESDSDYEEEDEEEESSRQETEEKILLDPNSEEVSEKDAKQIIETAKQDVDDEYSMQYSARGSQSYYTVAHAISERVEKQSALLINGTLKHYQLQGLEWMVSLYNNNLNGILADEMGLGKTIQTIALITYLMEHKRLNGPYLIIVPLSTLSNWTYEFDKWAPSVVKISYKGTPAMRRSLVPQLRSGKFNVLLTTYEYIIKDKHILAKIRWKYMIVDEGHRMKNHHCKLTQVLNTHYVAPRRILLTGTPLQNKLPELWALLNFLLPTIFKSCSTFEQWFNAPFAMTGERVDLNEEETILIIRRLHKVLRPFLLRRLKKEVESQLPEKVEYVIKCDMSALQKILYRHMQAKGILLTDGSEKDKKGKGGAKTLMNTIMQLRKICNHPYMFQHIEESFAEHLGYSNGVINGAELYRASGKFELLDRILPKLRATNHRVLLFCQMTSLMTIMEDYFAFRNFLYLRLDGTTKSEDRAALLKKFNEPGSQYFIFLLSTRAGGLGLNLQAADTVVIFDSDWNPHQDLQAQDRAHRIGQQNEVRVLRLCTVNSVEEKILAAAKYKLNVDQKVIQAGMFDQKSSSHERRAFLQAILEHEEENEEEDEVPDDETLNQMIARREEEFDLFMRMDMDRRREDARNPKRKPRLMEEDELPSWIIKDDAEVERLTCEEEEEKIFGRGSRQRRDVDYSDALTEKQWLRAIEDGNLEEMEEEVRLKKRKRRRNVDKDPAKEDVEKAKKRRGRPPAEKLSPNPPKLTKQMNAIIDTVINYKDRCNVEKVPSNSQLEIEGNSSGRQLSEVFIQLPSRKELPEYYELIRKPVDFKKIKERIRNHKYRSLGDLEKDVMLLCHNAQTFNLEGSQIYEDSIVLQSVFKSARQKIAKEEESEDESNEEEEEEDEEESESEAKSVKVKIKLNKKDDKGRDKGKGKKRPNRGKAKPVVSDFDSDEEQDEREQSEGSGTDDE
T2 sequence (P51532 whole entry, the tested form may be a part): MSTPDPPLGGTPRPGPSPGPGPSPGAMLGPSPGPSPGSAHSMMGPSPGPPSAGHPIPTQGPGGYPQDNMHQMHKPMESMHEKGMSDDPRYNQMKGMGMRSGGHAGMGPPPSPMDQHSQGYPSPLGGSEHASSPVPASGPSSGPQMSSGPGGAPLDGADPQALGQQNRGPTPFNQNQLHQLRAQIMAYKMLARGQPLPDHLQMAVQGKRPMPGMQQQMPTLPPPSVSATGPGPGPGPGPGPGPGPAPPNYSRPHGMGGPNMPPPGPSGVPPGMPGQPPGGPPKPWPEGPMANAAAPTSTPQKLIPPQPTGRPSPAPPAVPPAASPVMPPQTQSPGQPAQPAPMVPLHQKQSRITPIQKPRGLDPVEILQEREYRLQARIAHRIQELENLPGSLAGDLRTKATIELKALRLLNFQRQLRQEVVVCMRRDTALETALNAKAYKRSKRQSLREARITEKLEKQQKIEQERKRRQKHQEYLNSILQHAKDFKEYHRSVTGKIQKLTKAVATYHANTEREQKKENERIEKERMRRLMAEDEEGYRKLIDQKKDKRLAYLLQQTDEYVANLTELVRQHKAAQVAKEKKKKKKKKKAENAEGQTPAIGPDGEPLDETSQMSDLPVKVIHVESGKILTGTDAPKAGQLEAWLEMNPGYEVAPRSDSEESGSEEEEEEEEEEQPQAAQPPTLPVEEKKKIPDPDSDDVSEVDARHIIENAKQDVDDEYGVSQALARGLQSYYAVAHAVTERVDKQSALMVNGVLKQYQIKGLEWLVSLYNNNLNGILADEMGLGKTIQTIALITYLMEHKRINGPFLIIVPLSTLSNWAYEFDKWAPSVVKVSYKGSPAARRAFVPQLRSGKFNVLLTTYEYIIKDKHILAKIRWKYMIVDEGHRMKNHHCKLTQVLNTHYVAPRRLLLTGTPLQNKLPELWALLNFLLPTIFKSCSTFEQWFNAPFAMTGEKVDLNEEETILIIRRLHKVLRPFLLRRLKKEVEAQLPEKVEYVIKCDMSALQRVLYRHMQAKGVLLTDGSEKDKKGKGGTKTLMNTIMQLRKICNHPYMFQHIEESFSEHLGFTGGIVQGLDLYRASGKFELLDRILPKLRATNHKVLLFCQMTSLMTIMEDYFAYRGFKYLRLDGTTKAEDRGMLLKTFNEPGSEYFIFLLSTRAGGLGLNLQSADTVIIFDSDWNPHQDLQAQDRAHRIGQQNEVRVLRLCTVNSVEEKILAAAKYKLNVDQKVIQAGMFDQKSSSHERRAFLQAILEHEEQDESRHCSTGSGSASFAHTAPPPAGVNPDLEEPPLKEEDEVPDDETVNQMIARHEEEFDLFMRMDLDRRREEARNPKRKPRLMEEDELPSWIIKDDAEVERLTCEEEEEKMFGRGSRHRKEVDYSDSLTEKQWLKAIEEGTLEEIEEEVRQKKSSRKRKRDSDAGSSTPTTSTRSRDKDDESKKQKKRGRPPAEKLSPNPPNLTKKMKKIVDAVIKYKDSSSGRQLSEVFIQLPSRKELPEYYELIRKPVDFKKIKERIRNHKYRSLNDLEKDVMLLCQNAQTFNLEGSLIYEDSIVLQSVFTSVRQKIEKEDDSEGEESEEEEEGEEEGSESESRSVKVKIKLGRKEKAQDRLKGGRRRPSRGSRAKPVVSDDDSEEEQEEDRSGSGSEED

Cc1ncsc1-c1ccc([C@H](C)NC(=O)[C@@H]2C[C@@H](O)CN2C(=O)C(F)(c2cc(N3CC4(CN(c5ccc6cc(-c7ccccc7O)nnc6c5)C4)C3)no2)C(C)C)cc1 (stereo in doubt) [Compound 221, (2S,4R)-1-((R)-2-fluoro-2-(3-(6-(3-(2-hydroxyphenyl)cinnolin-7-yl)-2,6-diazaspiro[3.3]heptan-2-yl)isoxazol-5-yl)-3-methylbutanoyl)-4-hydroxy-N-((S)-1-(4-(4-methylthiazol-5-yl)phenyl)ethyl)pyrrolidine-2-carboxamide]
DC50 [1]: < 10 nM | BRM HiBit Degradation Maximum (%) [1]: A (“A” indicates maximum degradation ≥75%) | DC50 [2]: > 10 nM | Dmax [2]: > 50%

Cc1ncsc1-c1ccc([C@H](C)NC(=O)[C@@H]2C[C@@H](O)CN2C(=O)[C@@H](c2cc(-c3cnc(N4CCC5(CC4)CC(c4ccc6nnc(-c7ccccc7O)cc6c4)C5)nc3)no2)C(C)C)cc1 [Compound 56, (2S,4R)-4-hydroxy-1-((R)-2-(3-(2-(2-(3-(2-hydroxyphenyl)cinnolin-6-yl)-7-azaspiro[3.5]nonan-7-yl)pyrimidin-5-yl)isoxazol-5-yl)-3-methylbutanoyl)-N-((S)-1-(4-(4-methylthiazol-5-yl)phenyl)ethyl)pyrrolidine-2-carboxamide]
DC50 [1]: < 10 nM | BRM HiBit Degradation Maximum (%) [1]: A (“A” indicates maximum degradation ≥75%) | DC50 [2]: < 10 nM | Dmax [2]: > 75%

Cc1ncsc1-c1ccc([C@H](C)NC(=O)[C@@H]2C[C@@H](O)CN2C(=O)[C@@H](c2cc(N3CC[C@H](c4ccc5nnc(-c6ccccc6O)cc5c4)C3)no2)C(C)C)cc1 [Compound 55, (2S,4R)-4-hydroxy-1-((R)-2-(3-((R)-3-(3-(2-hydroxyphenyl)cinnolin-6-yl)pyrrolidin-1-yl)isoxazol-5-yl)-3-methylbutanoyl)-N-((S)-1-(4-(4-methylthiazol-5-yl)phenyl)ethyl)pyrrolidine-2-carboxamide]
DC50 [1]: > 10 nM | BRM HiBit Degradation Maximum (%) [1]: B (“B” indicates maximum degradation ≥50%) | Dmax [2]: < 50%

Cc1ncsc1-c1ccc([C@H](C)NC(=O)[C@@H]2C[C@@H](O)CN2C(=O)C(C(C)C)n2cc(N3CCC(C4CCN(c5ccc6cc(-c7ccccc7O)nnc6c5)CC4)C3)nn2)cc1 (stereo partly drawn) [Compound 266, (2S,4R)-4-hydroxy-1-(2-(4-(3-(1-(3-(2-hydroxyphenyl)cinnolin-7-yl)piperidin-4-yl)pyrrolidin-1-yl)-1H-1,2,3-triazol-1-yl)-3-methylbutanoyl)-N-((S)-1-(4-(4-methylthiazol-5-yl)phenyl)ethyl)pyrrolidine-2-carboxamide]
DC50 [1]: < 10 nM | BRM HiBit Degradation Maximum (%) [1]: A (“A” indicates maximum degradation ≥75%) | DC50 [2]: < 10 nM | Dmax [2]: > 75%

Cc1ncsc1-c1ccc([C@H](C)NC(=O)[C@@H]2C[C@@H](O)CN2C(=O)[C@@H](c2ccnc(N3CC4(CN(c5ccc6cc(-c7ccccc7O)nnc6c5)C4)C3)c2)C(C)C)cc1 [Compound 175, (2S,4R)-4-hydroxy-1-[(2R)-2-(2-{6-[3-(2-hydroxyphenyl)cinnolin-7-yl]-2,6-diazaspiro[3.3]heptan-2-yl}pyridin-4-yl)-3-methylbutanoyl]-N-[(1S)-1-[4-(4-methyl-1,3-thiazol-5-yl)phenyl]ethyl]pyrrolidine-2-carboxamide]
DC50 [1]: > 10 nM | BRM HiBit Degradation Maximum (%) [1]: A (“A” indicates maximum degradation ≥75%) | Dmax [2]: < 50%

Cc1ncsc1-c1ccc([C@H](C)NC(=O)[C@@H]2C[C@@H](O)CN2C(=O)[C@@H](c2cc(N3CC4(CC(c5ccc6cc(-c7ccccc7O)nnc6c5)C4)C3)no2)C(C)C)cc1 [Compound 34]
DC50 [1]: < 10 nM | BRM HiBit Degradation Maximum (%) [1]: A (“A” indicates maximum degradation ≥75%) | DC50 [2]: > 10 nM | Dmax [2]: > 75%

Cc1cc2cc(-c3ccccc3O)nnc2cc1N1CC2(CN(c3cc([C@H](C(=O)N4C[C@H](O)C[C@H]4C(=O)N[C@@H](C)c4ccc(-c5scnc5C)cc4)C(C)C)on3)C2)C1 [Compound 121, (2S,4R)-4-hydroxy-1-((R)-2-(3-(6-(3-(2-hydroxyphenyl)-6-methylcinnolin-7-yl)-2,6-diazaspiro[3.3]heptan-2-yl)isoxazol-5-yl)-3-methylbutanoyl)-N-((S)-1-(4-(4-methylthiazol-5-yl)phenyl)ethyl)pyrrolidine-2-carboxamide]
DC50 [1]: < 10 nM | BRM HiBit Degradation Maximum (%) [1]: A (“A” indicates maximum degradation ≥75%) | DC50 [2]: < 10 nM | Dmax [2]: > 75%

C#Cc1ccc([C@H](C)NC(=O)[C@@H]2C[C@@H](O)CN2C(=O)[C@@H](c2cc(N3CC4(CN(c5ccc6cc(-c7ccccc7O)nnc6c5)C4)C3)no2)C(C)C)c(OC)c1 [Compound 273, (2S,4R)-N-((S)-1-(4-ethynyl-2-methoxyphenyl)ethyl)-4-hydroxy-1-((R)-2-(3-(6-(3-(2-hydroxyphenyl)cinnolin-7-yl)-2,6-diazaspiro[3.3]heptan-2-yl)isoxazol-5-yl)-3-methylbutanoyl)pyrrolidine-2-carboxamide]
DC50 [1]: < 10 nM | BRM HiBit Degradation Maximum (%) [1]: A (“A” indicates maximum degradation ≥75%) | Dmax [2]: < 50%

Cc1ncsc1-c1ccc([C@H](C)NC(=O)[C@@H]2C[C@@H](O)CN2C(=O)[C@@H](c2cc(N3CC4(CN(c5cc(C#N)c6cc(-c7ccccc7O)nnc6c5)C4)C3)no2)C(C)C)cc1 [Compound 173, (2S,4R)-1-((R)-2-(3-(6-(5-cyano-3-(2-hydroxyphenyl)cinnolin-7-yl)-2,6-diazaspiro [3.3]heptan-2-yl)isoxazol-5-yl)-3-methylbutanoyl)-4-hydroxy-N-((S)-1-(4-(4-methylthiazol-5-yl)phenyl)ethyl)pyrrolidine-2-carboxamide]
DC50 [1]: > 10 nM | BRM HiBit Degradation Maximum (%) [1]: B (“B” indicates maximum degradation ≥50%) | Dmax [2]: < 50%

Cc1ncsc1-c1ccc([C@H](C)NC(=O)[C@@H]2C[C@@H](O)CN2C(=O)[C@@H](c2cc(N3CCCC4(CN(c5ccc6nnc(-c7ccccc7O)cc6c5)C4)C3)no2)C(C)C)cc1 [Compound 166, (2S,4R)-4-hydroxy-1-((R)-2-(3-(2-(3-(2-hydroxyphenyl)cinnolin-6-yl)-2,6-diazaspiro[3.5]nonan-6-yl)isoxazol-5-yl)-3-methylbutanoyl)-N-((S)-1-(4-(4-methylthiazol-5-yl)phenyl)ethyl)pyrrolidine-2-carboxamide]
DC50 [1]: < 10 nM | BRM HiBit Degradation Maximum (%) [1]: A (“A” indicates maximum degradation ≥75%) | DC50 [2]: > 10 nM | Dmax [2]: > 75%

CC(C)C(C(=O)N1C[C@H](O)C[C@H]1C(=O)N[C@@H](C)c1ccc(C#N)cc1)c1cc(N2CC3(CN(c4ccc5cc(-c6ccccc6O)nnc5c4)C3)C2)no1 (stereo partly drawn) [Compound 112, (2S,4R)-N-((S)-1-(4-cyanophenyl)ethyl)-4-hydroxy-1-(2-(3-(6-(3-(2-hydroxyphenyl)cinnolin-7-yl)-2,6-diazaspiro[3.3]heptan-2-yl)isoxazol-5-yl)-3-methylbutanoyl)pyrrolidine-2-carboxamide]
DC50 [1]: < 10 nM | BRM HiBit Degradation Maximum (%) [1]: A (“A” indicates maximum degradation ≥75%) | DC50 [2]: > 10 nM | Dmax [2]: > 50%

Cc1ncsc1-c1ccc([C@H](C)NC(=O)[C@@H]2C[C@@H](O)CN2C(=O)[C@@H](c2cc(N3CC4(CN(c5cc(C6CC6)c6cc(-c7ccccc7O)nnc6c5)C4)C3)no2)C(C)C)cc1 [Compound 125, (2S,4R)-1-((R)-2-(3-(6-(5-cyclopropyl-3-(2-hydroxyphenyl)cinnolin-7-yl)-2,6-diazaspiro[3.3]heptan-2-yl)isoxazol-5-yl)-3-methylbutanoyl)-4-hydroxy-N-((S)-1-(4-(4-methylthiazol-5-yl)phenyl)ethyl)pyrrolidine-2-carboxamide]
DC50 [1]: < 10 nM | BRM HiBit Degradation Maximum (%) [1]: A (“A” indicates maximum degradation ≥75%) | Dmax [2]: < 50%

Cc1ncsc1-c1ccc([C@H](C)NC(=O)[C@@H]2C[C@@H](O)CN2C(=O)[C@@H](c2cc(N3CC4(CN(c5cc(Cl)c6cc(-c7ccccc7O)nnc6c5)C4)C3)no2)C(C)C)cc1 [Compound 163, (2S,4R)-1-((R)-2-(3-(6-(5-chloro-3-(2-hydroxyphenyl)cinnolin-7-yl)-2,6-diazaspiro[3.3]heptan-2-yl)isoxazol-5-yl)-3-methylbutanoyl)-4-hydroxy-N-((S)-1-(4-(4-methylthiazol-5-yl)phenyl)ethyl)pyrrolidine-2-carboxamide]
DC50 [1]: < 10 nM | BRM HiBit Degradation Maximum (%) [1]: A (“A” indicates maximum degradation ≥75%) | Dmax [2]: < 50%

Cc1ncsc1-c1ccc([C@H](C)NC(=O)[C@@H]2C[C@@H](O)CN2C(=O)[C@H](c2cc(-c3cnc(N4CC[C@H](c5ccc6cc(-c7ccccc7O)nnc6c5)C4)nc3)no2)C(C)C)cc1 [Compound 21]
BRM HiBit Degradation Maximum (%) [1]: C (“C” indicates maximum degradation <50%) | Dmax [2]: < 50%

Cc1ncsc1-c1ccc([C@H](C)NC(=O)[C@@H]2C[C@@H](O)CN2C(=O)[C@H](c2cc(-c3cnc(N4CC(c5cc6nnc(-c7ccccc7O)cc6cc5Cl)C4)nc3)no2)C(C)C)cc1 [Compound 31]
DC50 ([1]; given as a number): 243 nM | BRM HiBit Degradation Maximum (%) [1]: A (“A” indicates maximum degradation ≥75%) | Dmax [2]: < 50%
